Assay results taken from PubChem BioAssay (NCI).
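Protocol summary: plate cells (96-well), add compound at 5 concentrations, incubate 48 h, interpolate endpoints linearly. At the TGI there is no net growth.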

What was measured:
Test in all cases: inhibition of tumour cell growth, NCI panel, 48 h
SF-268 CNS = system: SF-268 CNS
K-562 leukemia = system: K-562 leukemia
786-0 renal = system: 786-0 renal
SW-620 colon = system: SW-620 colon
SK-MEL-5 melanoma = system: SK-MEL-5 melanoma
MALME-3M melanoma = system: MALME-3M melanoma
A549 NSCLC = system: A549 NSCLC
SF-295 CNS = system: SF-295 CNS
HOP-18 NSCLC = system: HOP-18 NSCLC
XF 498 CNS = system: XF 498 CNS

| Compound | TGI (SF-268 CNS) [µM] | TGI (K-562 leukemia) [µM] | TGI (786-0 renal) [µM] | TGI (SW-620 colon) [µM] | TGI (SK-MEL-5 melanoma) [µM] | TGI (MALME-3M melanoma) [µM] | TGI (A549 NSCLC) [µM] | TGI (SF-295 CNS) [µM] | TGI (HOP-18 NSCLC) [µM] | TGI (XF 498 CNS) [µM] |
| --- | --- | --- | --- | --- | --- | --- | --- | --- | --- | --- |
| Nc1ccc(-c2nc3ccccc3s2)cc1 | 31.4 | 58.4 | 29.7 | 41.1 | 50.1 | 45 | 63.2 | > 74.9 | > 100 | – |
| COc1ccc(C2NC(=O)Nc3c2c(=O)oc2c3ccc3ccccc32)cc1 (stereo not drawn) | > 100 | > 100 | > 100 | > 100 | > 100 | > 100 | > 100 | > 100 | – | – |
| Cc1ccc2c(=O)c(C(=O)N(CCO)CCO)c[nH]c2n1 | > 100 | > 100 | > 100 | > 100 | > 100 | > 100 | > 100 | > 100 | – | – |
| C/C(=C\CNc1nc(Cl)nc2nc[nH]c12)CO | > 100 | > 100 | > 100 | > 100 | > 100 | > 100 | > 100 | > 100 | – | – |
| COC1=CC(=O)c2c(cc(COP(=O)(N(C)CCBr)N(C)CCBr)n2C)C1=O | > 38.2 | > 100 | 2.87 | 7.58 | 2.33 | 2.95 | 7.18 | 3.62 | – | – |
| CCCCCCCCC[n+]1cccc(C2C(C(=O)OCC)=C(C)NC(C)=C2C(=O)OCC)c1 | 16.9 | 43.7 | 26.9 | 30.5 | 3.8 | 4.67 | 36.1 | 33.9 | – | – |
| O=C(NCc1ccccc1)c1c(O)c2ccccc2[nH]c1=O | > 100 | > 100 | > 100 | > 100 | > 100 | > 100 | > 100 | > 100 | – | – |
| COc1ccc(C2=NNC(=O)c3ccccc3N2c2nc(-c3cccs3)nc3ccc(Br)cc23)cc1 | > 100 | > 100 | 82 | > 100 | > 100 | 75.9 | > 100 | 55.1 | – | – |
| CCCC(=O)OC1CC(n2cc(F)c(=O)[nH]c2=O)OC1CO (stereo not drawn) | > 10 | > 10 | > 10 | > 10 | 1.84 | > 10 | > 10 | > 10 | – | – |
| OC(O)(C(F)(F)F)C(F)(F)F | > 100 | > 100 | > 100 | > 100 | > 100 | > 100 | > 100 | > 100 | – | – |
| CSc1ccccc1P(CCP(c1ccccc1SC)c1ccccc1SC)c1ccccc1SC | > 100 | > 100 | > 100 | > 100 | > 70.1 | > 100 | > 100 | > 95.7 | – | – |
| COC(=O)C1=C(C)NC2(C)OC(C)(O)C(C(C)=O)C12C(C)=O (stereo not drawn) | > 100 | > 100 | > 100 | > 100 | > 100 | 50.9 | > 100 | > 100 | – | – |
| COc1ccc(N2C(=O)C(N3C(=O)C=CC3=O)C2C=O)cc1 (stereo not drawn) | > 100 | > 100 | > 100 | > 100 | > 100 | > 100 | > 100 | > 100 | > 100 | – |
| COc1ccc(NS(=O)c2cccc(C)c2)cc1 (stereo not drawn) | > 100 | > 100 | > 100 | > 100 | 75 | > 100 | > 100 | > 100 | – | – |
| COc1ccc(C(C)NNC(=O)c2ccncc2)cc1F (stereo not drawn) | > 100 | > 100 | > 100 | > 100 | > 100 | > 100 | > 100 | > 100 | – | – |
| c1ccc2c(c1)c1c3n2-c2cc(on2)C3CCC1 (stereo not drawn) | > 100 | > 100 | > 100 | > 100 | > 100 | > 100 | > 100 | > 100 | – | – |
| C[C@@H]1OCC(O)C([C@H]2OC(c3ccccc3)=N[C@H]2CO)O1 (stereo partly drawn) | > 100 | > 100 | > 100 | > 100 | > 100 | > 100 | > 100 | > 100 | – | – |
| CC(=O)[C@H]1CCC2[C@@H]3CC=C4C(O)C(OS(=O)(=O)O)CC[C@]4(C)C3CC[C@@]21C (stereo partly drawn) | > 100 | > 100 | – | > 100 | > 100 | > 100 | > 100 | > 100 | > 100 | – |
| CN(CCN(C)C(=O)CCn1ccc(=O)[nH]c1=O)C(=O)CCn1ccc(=O)[nH]c1=O | > 100 | > 100 | > 100 | > 100 | > 100 | > 100 | > 100 | > 100 | – | > 100 |

| Compound | TGI (SF-268 CNS) [µM] | TGI (K-562 leukemia) [µM] | TGI (786-0 renal) [µM] | TGI (SW-620 colon) [µM] | TGI (SK-MEL-5 melanoma) [µM] | TGI (MALME-3M melanoma) [µM] | TGI (A549 NSCLC) [µM] | TGI (SF-295 CNS) [µM] | TGI (HOP-18 NSCLC) [µM] | TGI (XF 498 CNS) [µM] |
| --- | --- | --- | --- | --- | --- | --- | --- | --- | --- | --- |
| O=C(C=P(c1ccccc1)(c1ccccc1)c1ccccc1)c1ccc(-c2ccc(F)cc2F)cc1 | 15.5 | 5.31 | 13.7 | 14.9 | 3.55 | 7.17 | 11.4 | 9.87 | – | – |
| CC1OC=CC(=O)C1O (stereo not drawn) | – | > 100 | – | > 100 | > 100 | > 100 | > 100 | > 100 | – | > 100 |
| C=C1C(=O)O[C@H]2C3C(=C(C)CC[C@@H]12)C(=O)[C@@H]1OC31C (stereo partly drawn) | 12.6 | 5.35 | 3.26 | 2.6 | 6.11 | 4.66 | 28.3 | 27.3 | – | – |
| O=c1/c(=C/c2ccc(-c3ccc(Cl)cc3Cl)o2)sc2n1[C@@H](c1ccc3c(c1)OCO3)C=C(c1cc(F)c(Cl)cc1Cl)N=2 | > 100 | > 100 | > 100 | > 100 | > 100 | > 100 | > 100 | > 100 | – | – |
| COC(=O)C[C@H](CCSC)NC(=O)C[C@H](CCSC)NC(=O)C[C@H](CCSC)NC(=O)OC(C)(C)C | 59.2 | > 100 | > 100 | > 100 | > 100 | > 100 | > 100 | 51.4 | – | – |
| CCOC(=O)c1cn(C)nc1N/C(C)=C\C(=O)c1ccccc1 | > 100 | > 100 | > 100 | > 100 | > 100 | > 100 | > 100 | > 100 | – | – |
| C/C(=C\c1ccccc1)C(=O)NCc1ccc(C(=O)NCCc2c[nH]c3ccccc23)cc1 | > 100 | > 100 | > 100 | > 100 | > 100 | > 100 | > 100 | > 100 | – | – |
| CC1(O)C(=O)OC2CC([C@]3(O)CCC4[C@@H]5C[C@H]6O[C@]67[C@@H](O)C=CC(=O)[C@]7(C)C5CC[C@@]43C)C1(C)C2 (stereo partly drawn) | > 92 | > 31.6 | 25.6 | 11.1 | 45.3 | 16.6 | > 100 | > 100 | – | – |
| COc1ccc(NC(=S)NNC(=O)c2cc(-c3ccccc3)nc3ccccc23)cc1 | 90.1 | 46.5 | 40.5 | 41.6 | 25.6 | 54 | 47 | 16.4 | – | – |
| Cc1nn(-c2ccccn2)c2c1C(SC#N)=C(C=O)CC2 | 33 | 39 | 25.1 | 59.3 | 28.2 | 36.2 | 46 | > 100 | – | – |
| Cc1nnc(CC#N)n1NC(=O)CC#N | > 100 | > 100 | > 100 | > 100 | > 100 | > 100 | > 100 | > 100 | – | – |
| O=S(=O)(O)c1ccc(Nc2ccnc3cc(Cl)ccc23)cc1 | > 100 | > 100 | > 100 | > 100 | > 100 | > 100 | > 100 | > 100 | – | – |
| O=c1oc2ccccc2c(O)c1Cc1cccc(Cc2c(O)c3ccccc3oc2=O)c1 | > 100 | > 100 | > 100 | > 100 | > 100 | > 100 | > 100 | > 100 | – | – |
| Cc1nnc2sc(-c3ccc([N+](=O)[O-])o3)nn12 | 27 | 26.1 | 22 | 23.2 | 24.4 | 14.3 | > 100 | 31 | – | – |
| Oc1ccc2ccccc2c1OCc1nnc(CCCCCCCCc2nnc(COc3c(O)ccc4ccccc34)o2)o1 | > 100 | > 100 | > 100 | > 100 | > 100 | > 100 | > 100 | > 100 | – | – |
| CC(C)c1nccn1Cc1ccc(Cl)cc1Cl | > 100 | > 100 | > 100 | > 100 | 34.9 | > 100 | > 100 | > 100 | – | – |
| COc1cc2c(cc1O)CC[C@@H]1C2CC[C@@]2(C)C1CC[C@@H]2O (stereo partly drawn) | > 100 | 26.1 | > 100 | > 100 | 36.7 | > 100 | > 100 | 16.5 | – | – |
| COC(=O)/C=C\C(C#N)(C#N)N=Cc1ccsc1 | 46.2 | 1.62 | 3.02 | 3.34 | 15.5 | 3.5 | 33 | 27.5 | – | – |
